Experimental data taken from US8580769B2, “Treatment of obesity, metabolic syndrome, and diabetes with protein kinase C inhibitors” (The United States of America as represented by the …, priority 2011, dated 2013).

Assays:
[1] = target: T1, recombinant PKC-ι (Homo sapiens, UniProt P41743); assay: recombinant PKC-ι activity assay (PIP3-activated); assay type: biochemical
T1 construct: purchased Biovision, Mountain View, Calif
T1 sequence (P41743 1-596): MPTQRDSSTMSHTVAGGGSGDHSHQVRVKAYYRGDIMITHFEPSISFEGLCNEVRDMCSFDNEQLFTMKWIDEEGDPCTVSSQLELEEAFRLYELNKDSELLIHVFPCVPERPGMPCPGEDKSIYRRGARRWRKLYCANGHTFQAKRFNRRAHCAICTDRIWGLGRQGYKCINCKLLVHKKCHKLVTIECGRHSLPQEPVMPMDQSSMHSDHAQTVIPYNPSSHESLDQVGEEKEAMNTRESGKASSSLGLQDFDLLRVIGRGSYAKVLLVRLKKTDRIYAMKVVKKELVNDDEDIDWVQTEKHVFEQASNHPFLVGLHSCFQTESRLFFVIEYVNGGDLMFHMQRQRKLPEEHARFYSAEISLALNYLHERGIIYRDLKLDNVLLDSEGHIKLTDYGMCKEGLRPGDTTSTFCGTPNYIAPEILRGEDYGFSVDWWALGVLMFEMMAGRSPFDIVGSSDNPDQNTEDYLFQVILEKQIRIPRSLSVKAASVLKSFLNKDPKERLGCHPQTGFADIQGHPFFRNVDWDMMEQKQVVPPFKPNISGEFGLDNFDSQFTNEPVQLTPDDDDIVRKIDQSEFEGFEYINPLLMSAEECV
Procedure: aPKCι Assays: aPKC enzyme activity was measured as previously described (Standaert et al., J. Biol. Chem. 279:24929-24934, 2004; Sajan et al., J. Lipid Res. 50:1133-1145, 2009; Sajan et al., Diabetologia 52:1197-1207, 2009; Farese et al., J. Clin. Invest. 117:2289-2301, 2007). […] After incubation, ^32P-labeled substrate was trapped on P-81 filter paper and counted. […]

[2] = system: FoxO1; assay: serine-256 phosphorylation of FoxO1 in human hepatocytes; assay type: cell-based; details: inhibitor alone or with insulin
Procedure: After thawing, the hepatocytes were distributed (approximately 10^6 cells per 100 mm plate) and incubated approximately 16 hours overnight in Dulbecco's minimal essential medium containing 5% fetal calf serum, 100 units/ml sodium-penicillin, 100 μg/ml streptomycin-sulfate, 1 μM insulin and 2 μM dexamethasone. After washing, cells were incubated first for 2 hours in William's E medium (Sigma-Aldrich, St. Louis, Mo., catalog no. W1878) containing GLUTAMAX™ (Gibco/Invitrogen, Carlsbad, Calif.), 100 units/ml sodium-penicillin, 100 μg/ml streptomycin-sulfate, 10 μM insulin, 100 nM dexamethasone, and then for 2 hours in William's E medium containing 100 units/ml sodium penicillin, 100 μg/ml streptomycin-sulfate, 100 nM dexamethasone, 0.25 mg/ml transferrin, 0.25 μg/ml sodium selenite and 10 μM insulin. Cells were then washed and incubated for 3 hours in the same medium, but lacking insulin. Where indicated, an aPKC inhibitor was then added and incubation was continued for 30 min, after which, cells were treated either for 15 min with or without 100 nM insulin for acute signaling studies, or for 6 hours, with or without 1 μM insulin for expression studies. After incubation, cells were sonicated in homogenizing buffer. […]

For O=C([O-])CC([S][Au])C(=O)[O-] (stereo not shown) [ATM, aurothiomalate, reference compound], the “inhibition of PIP3-activated recombinant PKC-ι” value ([1]; in vitro) was “did not inhibit” and the FoxO1 phosphorylation [2] was “insulin-like, or enhanced insulin, effects”.

With NC(=O)c1ncn([C@@H]2C[C@H](COP(=O)(O)O)[C@@H](O)[C@H]2O)c1N [ICAPP, 1H-imidazole-4-carboxamide, 5-amino-1-[2,3-dihydroxy-4-[(phosphonooxy)methyl]cyclopentyl]-[1R-(1α,2β,3β,4α)]] the IC50 ([1]; 10 ng recombinant PKC-ι activated by 10 fM PIP3, in vitro) was 10 to 100 nM and the FoxO1 phosphorylation [2] was “insulin-like, or enhanced insulin, effects”.
